{"source": "patent US20260297127A1", "about": "“REVERSIBLE SURFACTANT AND MULTIFUNCTIONAL DRUG DELIVERY SYSTEMS BASED THEREON” (Yissum Research Development Company of the Hebrew …, priority 2023, published 2026)", "key": {"[1]": {"conditions": "Zn^2+ ions for PTX; metal ions for the others; cited from earlier work"}, "[2]": {"test": "Emulsion formation and stability (mixing with non-aqueous phase, manual agitation)", "type": "physicochemical", "conditions": "chloroform-water", "description": "We designed the peptide Trp-His-His-Trp (WHHW, SEQ ID NO 1), which contains a metal-binding dihistidine moiety surrounded by two hydrophobic amino acids. When an aqueous solution of the peptide and certain metal ions are mixed with a non-aqueous phase, an emulsion is formed (FIG. 1B). […] Depending on the ratio between the aqueous and non-aqueous phases, o/w or w/o emulsions can be formed (FIG. 1C). The peptide has weak inherent fluorescence, but its presence on the interface of the emulsion droplets was inferred by labeling it with fluorescein isothiocyanate (FITC) (FIG. 1D).\nBy increasing the pH again, the emulsion can be reassembled. With chloroform as the non-aqueous phase, the emulsion has a critical micelle concentration of ~0.2 mM and it is stable for at least 4 months at room temperature (FIG. 3A). Adding ethylenediaminetetraacetic acid (EDTA) to remove the metal ions visibly disassembled the emulsion after ~24 h (FIG. 3B).\nThe same peptide derivatives in the presence of Cu^2+ ions, were further mixed with chloroform and manually agitated to form emulsions (FIG. 8).\nThe emulsions were prepared by mixing a peptide solution with the metal ions to a final concentration of 1 mm each and adding NaOH to obtain pH=10. The desired non-aqueous phase was added to this solution at 50% (v/v) and the two phases were manually agitated to form the emulsions. […]"}, "[3]": {"conditions": "in words; cited from earlier work"}, "[4]": {"test": "Encapsulation efficiency (% EE) in castor oil emulsions and solubility in the oil phase", "type": "physicochemical", "conditions": "for % EE (encapsulation efficiency) in words: castor oil emulsion", "experimental": "The % EE values may be altered to fit different drugs by changing the oil phase or by changing the emulsion preparation parameters such as the oil-water ratio.\nThe encapsulation efficiency (% EE) values were determined by comparing the amount of the free compound in the aqueous phase with the initial concentration. The compounds were dissolved in castor oil with 10% (v/v) ethanol. […] The % EE values were calculated using the formula: % EE=(Cinitial−C(aq.))/Cinitial×100%, where Cinitial is the concentration of the compound in the emulsion and Caq. is the concentration of the compound in the aqueous phase after the centrifugation. The measurements were performed in triplicates."}, "[5]": {"test_system": "cervical adenocarcinoma HeLa cells", "test": "MTT cytotoxicity assay, 72 h incubation", "type": "cell-based", "conditions": "Homo sapiens, PTX on its own, dissolved in DMSO, read-out: half maximal inhibitory concentration (IC50)", "experimental": "The ability to use these emulsions for drug delivery purposes was assessed using the 3-(4,5-dimethylthiazol-2-yl)-2,5-diphenyltetrazolium bromide (MTT) assay. The assay was conducted on cervical adenocarcinoma HeLa cells with the widely used drug paclitaxel (PTX). […] This poses significant disadvantages due to stability issues of the drug that can precipitate when diluted, causing therapeutic failures and possibly harming the patients. […] One way to overcome these complications is to administer the drug in an emulsion. An additional advantage of the system proposed herein is that the disassembly of the emulsion droplets will release the metal ions of the complex in addition to the PTX. […]\nThe complete cell-culture medium was prepared by the addition of 10% fetal bovine serum (FBS), 1% L-glutamine, and 1% Penicillin-Streptomycin (all purchased from Sartorius) to Dulbecco's Modified Eagle's Medium (DMEM, Sigma Aldrich). […] Afterwards, cytotoxicity was measured by the previously reported MTT method. […] The medium was removed and replaced with isopropanol (200 μL), and upon complete dissolution of the formazan, the absorbance was measured at 550 nm on a Spark 10 M multimode microplate reader spectrophotometer (Tecan Group Ltd., Mannedorf, Switzerland). […]"}, "[6]": {"test": "UV-vis titration / Benesi-Hildebrand plot / Job's plot of peptide with Cu^2+ ions", "type": "binding", "conditions": "read-out: stability constant (converted)", "experimental": "FIG. 6. Benesi-Hildebrand plot. The stability constant derived from this plot was 6918.3±0.2 M^−1, similar to the known value for imidazole.\n(FIG. 3A). […] A Job's plot was prepared as well with the peptide and Cu^2+ ions (FIG. 7B). In the samples with excess Cu^2+ ions (those above χ=0.5) the absorbance increased without an increase in the complex concentration. This may be because of the formation of Cu(OH)2 precipitates from the excess Cu^2+ ions due to the alkaline pH. To negate this effect, the absorbance values of solutions that contained the concentration of the excess Cu^2+ were subtracted from the original measurements. This yielded good linear fittings that indicate a 1:1 binding ratio.\nFor the UV-vis titration, a peptide solution (1.5 mm) was titrated with a CuCl2 solution (15 mM). The solutions were left for 5 min and the absorbance was measured using a UV-vis spectrophotometer (Shimadzu, UV-1650PC, Kyoto, Japan). For the Job's plot assay, peptide solutions with different mole fractions of Cu^2+ ions (up to 1 mm) were prepared at pH=9 and their absorbance values were measured."}, "[7]": {"test": "Self-assembly of the peptide observed experimentally", "type": "physicochemical"}, "[8]": {"conditions": "histidine residues; cited from earlier work"}}, "note": "Peptide text beside a SMILES is read from it."}
{"smiles": "CCN(CC)C(=S)SSC(=S)N(CC)CC", "note": "[Disulfiram]", "values": [{"measurement": "anti-tumor efficacy in presence of metal ions", "setting": "[1]", "result": "promoted"}]}
{"smiles": "N[C@@H](Cc1ccccc1)C(=O)N[C@@H](Cc1c[nH]cn1)C(=O)N[C@@H](Cc1c[nH]cn1)C(=O)N[C@@H](Cc1ccccc1)C(=O)O", "note": "[FHHF, Phe-His-His-Phe] (H-FHHF-OH)", "values": [{"measurement": "emulsion stability compared with WHHW", "setting": "[2]; 1 mM peptide and 1 mM Cu^2+", "result": "less stable"}]}
{"smiles": "O=C1OC2(c3ccc(O)cc3Oc3cc(O)ccc32)c2ccc(N=C=S)cc21", "note": "[FITC, fluorescein isothiocyanate]", "values": [{"measurement": "Solubility in water", "setting": "[3]", "result": "Insoluble"}, {"measurement": "solubility in castor oil", "setting": "[4]", "result": "low solubility"}, {"measurement": "% EE (encapsulation efficiency) in words", "setting": "[4]", "result": "lower"}]}
{"smiles": "CCN(CC)c1ccc2nc3c4ccccc4c(=O)cc-3oc2c1", "note": "[Nile red]", "values": [{"measurement": "Solubility in water", "setting": "[3]", "result": "Insoluble"}]}
{"smiles": "Cc1ccc(C)c(N=Nc2cc(C)c(N=Nc3c(O)ccc4ccccc34)cc2C)c1", "note": "[Oil red O]", "values": [{"measurement": "Solubility in water", "setting": "[3]", "result": "Insoluble"}, {"measurement": "solubility in castor oil", "setting": "[4]", "result": "low solubility"}, {"measurement": "% EE (encapsulation efficiency) in words", "setting": "[4]", "result": "lower"}]}
{"smiles": "CC(=O)O[C@H]1C(=O)[C@@]2(C)[C@H]([C@H](OC(=O)c3ccccc3)[C@]3(O)C[C@H](OC(=O)[C@H](O)[C@@H](NC(=O)c4ccccc4)c4ccccc4)C(C)=C1C3(C)C)[C@]1(OC(C)=O)CO[C@@H]1C[C@@H]2O", "note": "[Paclitaxel]", "values": [{"measurement": "anti-tumor efficacy in presence of metal ions", "setting": "[1]", "result": "enhanced"}, {"measurement": "Solubility in water", "setting": "[3]", "result": "Insoluble"}, {"measurement": "IC50", "setting": "[5]", "result": "0.014 ± 0.005", "unit": "µM"}]}
{"smiles": "N[C@@H](Cc1c[nH]c2ccccc12)C(=O)N[C@@H](Cc1c[nH]cn1)C(=O)N[C@@H](Cc1c[nH]cn1)C(=O)N[C@@H](Cc1c[nH]c2ccccc12)C(=O)O", "note": "[WHHW, Trp-His-His-Trp] (H-WHHW-OH)", "values": [{"measurement": "Kd", "setting": "[6]", "result": 145, "unit": "µM"}, {"measurement": "formation of emulsions with Cu^2+ ions", "setting": "[2]; 1 mM peptide derivative and 1 mM Cu^2+", "result": "formed emulsions"}, {"measurement": "self-assembled structure with Cu^2+ ions", "setting": "[7]; 5 mM peptide, 5 mM Cu^2+", "result": "spherical aggregates alongside the fibrous structures"}, {"measurement": "self-assembled structure", "setting": "[7]; 10 mM, water, 24 h", "result": "fibrous structures"}]}
{"smiles": "COc1cc(/C=C/C(=O)CC(=O)/C=C/c2ccc(O)c(OC)c2)ccc1O", "note": "[curcumin]", "values": [{"measurement": "anti-tumor efficacy in presence of metal ions", "setting": "[1]", "result": "promoted"}]}
{"smiles": "c1c[nH]cn1", "note": "[imidazole]", "values": [{"measurement": "pKa of the imidazole's amine", "setting": "[8]", "result": "~ 6"}]}
